From US6552196B2, “Quinolone carboxylic acid derivatives” (Dong Wha Pharmaceutical Industrial Co., Ltd., priority 1997, dated 2003)
In brackets after ≈: the same amount, converted by molar mass.

Experiments:
Experiment in all cases: In vitro antibacterial activity (MIC), agar dilution
Assay type in all cases: cell-based
[1] = system: Staphylococcus aureus 503; conditions: 2-fold agar dilution, Muller-Hinton agar, 18 hours at 37° C., read-out: minimum inhibitory concentration (MIC)
Protocol: (§1) 10^7 cfu/ml of bacteria were inoculated and cultured for 18 hours at 37° C. and then the antibacterial activities were measured. For the methicillin resistant strains the activities were measured after 48 hours of cultivation at 30° C. Hoechst Standard strains were used for the testings.

Esherichia coli 1507E = conditions: 2-fold agar dilution, Muller-Hinton agar, 18 hours at 37° C., read-out: minimum inhibitory concentration (MIC)
Protocol: as §1

[2] = system: Klebsiella aerogenes 1522E; conditions: 2-fold agar dilution, Muller-Hinton agar, 18 hours at 37° C., read-out: minimum inhibitory concentration (MIC)
Protocol: as §1

Esherichia coli DC0 = conditions: 2-fold agar dilution, Muller-Hinton agar, 18 hours at 37° C., read-out: minimum inhibitory concentration (MIC)
Protocol: as §1

[3] = system: Pseudomonas aeruginosa 1771; conditions: 2-fold agar dilution, Muller-Hinton agar, 18 hours at 37° C., read-out: minimum inhibitory concentration (MIC)
Protocol: as §1

[4] = system: Enterobacter clocae 1321E; conditions: 2-fold agar dilution, Muller-Hinton agar, 18 hours at 37° C., read-out: minimum inhibitory concentration (MIC)
Protocol: as §1

Klebsiella oxytoca 1082E = conditions: 2-fold agar dilution, Muller-Hinton agar, 18 hours at 37° C., read-out: minimum inhibitory concentration (MIC)
Protocol: as §1

[5] = system: Pseudomonas aeruginosa 9027; conditions: 2-fold agar dilution, Muller-Hinton agar, 18 hours at 37° C., read-out: minimum inhibitory concentration (MIC)
Protocol: as §1

Esherichia coli TEM = conditions: 2-fold agar dilution, Muller-Hinton agar, 18 hours at 37° C., read-out: minimum inhibitory concentration (MIC)
Protocol: as §1

[6] = system: Streptococcus pyogens 308A; conditions: 2-fold agar dilution, Muller-Hinton agar, 18 hours at 37° C., read-out: minimum inhibitory concentration (MIC)
Protocol: as §1

Esherichia coli 078 = conditions: 2-fold agar dilution, Muller-Hinton agar, 18 hours at 37° C., read-out: minimum inhibitory concentration (MIC)
Protocol: as §1

Esherichia coli DC2 = conditions: 2-fold agar dilution, Muller-Hinton agar, 18 hours at 37° C., read-out: minimum inhibitory concentration (MIC)
Protocol: as §1

[7] = system: Streptococcus faecium MD 8b; conditions: Enterococcus faecium, MD8B, 2-fold agar dilution, Muller-Hinton agar, 18 hours at 37° C., read-out: minimum inhibitory concentration (MIC)
Protocol: as §1

[8] = system: Pseudomonas aeruginosa 1771M; conditions: Pseudomonas aeruginosa, 1771M, 18 h, read-out: minimum inhibitory concentration (MIC)
Protocol: as §1

[9] = system: Streptococcus pyogens 77A; conditions: 2-fold agar dilution, Muller-Hinton agar, 18 hours at 37° C., read-out: minimum inhibitory concentration (MIC)
Protocol: as §1

Enterobacter clocae P99 = conditions: 2-fold agar dilution, Muller-Hinton agar, 18 hours at 37° C., read-out: minimum inhibitory concentration (MIC)
Protocol: as §1

[10] = system: Staphylococcus aureus 285; conditions: 2-fold agar dilution, Muller-Hinton agar, 18 hours at 37° C., read-out: minimum inhibitory concentration (MIC)
Protocol: as §1

[11] = system: Pseudomonas aeruginosa 1592E; conditions: 2-fold agar dilution, Muller-Hinton agar, 18 hours at 37° C., read-out: minimum inhibitory concentration (MIC)
Protocol: as §1

Salmonella typhimurium = conditions: Salmonella enterica, 2-fold agar dilution, Muller-Hinton agar, 18 hours at 37° C., read-out: minimum inhibitory concentration (MIC)
Protocol: as §1

[12] = system: Staphylococcus aureus SG511; conditions: 2-fold agar dilution, Muller-Hinton agar, 18 hours at 37° C., read-out: minimum inhibitory concentration (MIC)
Protocol: as §1

| SMILES | MIC [1] [µg/mL] | MIC (Esherichia coli 1507E) [µg/mL] | MIC [2] [µg/mL] | MIC (Esherichia coli DC0) [µg/mL] | MIC [3] [µg/mL] | MIC [4] [µg/mL] | MIC (Klebsiella oxytoca 1082E) [ng/mL] | MIC [5] [µg/mL] | MIC (Esherichia coli TEM) [µg/mL] | MIC [6] [µg/mL] | MIC (Esherichia coli 078) [µg/mL] | MIC (Esherichia coli DC2) [µg/mL] | MIC [7] [µg/mL] | MIC [8] [µg/mL] | MIC [9] [µg/mL] | MIC (Enterobacter clocae P99) [µg/mL] | MIC [10] [µg/mL] | MIC [11] [µg/mL] | MIC (Salmonella typhimurium) [µg/mL] | MIC [12] [µg/mL] |
| --- | --- | --- | --- | --- | --- | --- | --- | --- | --- | --- | --- | --- | --- | --- | --- | --- | --- | --- | --- | --- |
| CON=C1CN(c2cc3c(cc2F)c(=O)c(C(=O)O)cn3C2CC2)CC12CNC2.CS(=O)(=O)O [Example 2, 1-Cyclopropyl-6-fluoro-7-[8-(methoxyimino)-2,6-diazaspiro[3,4]oct-6-yl]-4-oxo-1,4-dihydro-3-quinolinecarboxylic acid methane sulfonate] | 0.049 | 0.049 | 0.098 | 0.198 | 0.391 | 0.025 | 7 | 0.781 | 0.049 | 0.195 | 0.025 | 0.013 | 0.098 | 0.391 | 0.007 | 0.049 | 0.049 | 0.391 | 0.025 | 0.013 |
| CON=C1CN(c2c(F)cc3c(=O)c(C(=O)O)cn(C4CC4)c3c2F)CC12CNC2 [Example 3, 1-Cyclopropyl-6,8-difluoro-7-[8-(methoxyimino)-2,6-diazaspiro[3,4]oct-6-yl]-4-oxo-1,4-dihydro-3-quinolinecarboxylic acid] | 0.098 (≈ 0.234 µM) | 0.049 (≈ 0.117 µM) | 0.098 (≈ 0.234 µM) | 0.391 (≈ 0.935 µM) | 1.56 (≈ 3.74 µM) | 0.025 (≈ 0.0598 µM) | 7 (≈ 0.0167 µM) | 1.56 (≈ 3.74 µM) | 0.049 (≈ 0.117 µM) | 0.391 (≈ 0.935 µM) | 0.098 (≈ 0.234 µM) | 0.025 (≈ 0.0598 µM) | 0.098 (≈ 0.234 µM) | 0.781 (≈ 1.87 µM) | 0.025 (≈ 0.0598 µM) | 0.049 (≈ 0.117 µM) | 0.049 (≈ 0.117 µM) | 0.781 (≈ 1.87 µM) | 0.025 (≈ 0.0598 µM) | 0.025 (≈ 0.0598 µM) |
